In US7241777B2, “Benzylimidazolyl substituted 2-quinoline and quinazoline derivatives for use as farnesyl transferase inhibitors” (Janssen Pharmaceutica N.V., priority 2002, dated 2007):
Like-named read-outs stand apart in the source and are kept apart here.

Tests used:
[1] = target: farnesyl protein transferase (Homo sapiens, UniProt P49354+P49356); experiment: In vitro assay for inhibition of farnesyl protein transferase; type: biochemical; conditions: for IC50: negative log value of the IC50-value; for inhibition at 0.1 µM: read-out: % of inhibition at 10^−7 M
Procedure: “In Vitro Assay for Inhibition of Farnesyl Protein Transferase”
An in vitro assay for inhibition of farnesyl transferase was performed essentially as described in WO 98/40383pages 33–34.

[2] = read-out: Enzyme activity pIC50 (converted)

Structure (SMILES)	melting point [°C]	IC50 [1, 2] [nM]	IC50 ([1]; read-out: pIC50 (converted)) [nM]	inhibition at 0.1 µM [1] [%]
Cn1c(=O)cc(-c2cccc(Cl)c2)c2cc(C(O)c3cncn3Cc3ccc(C#N)cc3)ccc21 (stereo not drawn) [Compound 3, 4-[[5-[[4-(3-chlorophenyl)-1,2-dihydro-1-methyl-2-oxo-6-quinolinyl]hydroxymethyl]-1H-imidazol-1-yl]methyl]-benzonitrile]	150	5.45	5.01	92
O=C(c1ccc2c(c1)c(-c1cccc(Cl)c1)cc1nnnn12)c1cncn1Cc1ccc(Cl)cc1 [Compound 4]	105	> 100		26
OC(c1ccc2c(c1)c(-c1cccc(Cl)c1)cc1nnnn12)c1cncn1Cc1ccc(Cl)cc1 (stereo not drawn) [Compound 5]	140	> 100		32
N#Cc1ccc(Cn2cncc2C(O)c2ccc3c(c2)c(-c2cccc(Cl)c2)cc2nnnn23)cc1 (stereo not drawn) [Compound 14]			10.8	87
O=C(c1ccc2c(c1)c(-c1cccc(Cl)c1)cc(=O)n2CC1CC1)c1cncn1Cc1ccc(Cl)cc1 [Compound 16]		> 100		18
N#Cc1ccc(Cn2c(=O)cc(-c3cccc(Cl)c3)c3cc(C(=O)c4cncn4Cc4ccc(Cl)cc4)ccc32)cc1 [Compound 17]		> 100		33

The next lines start with the values.

melting point [°C]	IC50 [1, 2] [nM]	IC50 ([1]; read-out: pIC50 (converted)) [nM]	inhibition at 0.1 µM [1] [%]	Structure (SMILES)
192				Cn1c(=O)cc(-c2cccc(Cl)c2)c2cc(C(=O)c3cncn3Cc3ccccc3)ccc21 [Compound 7]
188				Cn1c(=O)cc(-c2cccc(Cl)c2)c2cc(C(O)c3cncn3Cc3ccccc3)ccc21 (stereo not drawn) [Compound 8]
	> 100		44	Cn1c(=O)cc(-c2cccc(Cl)c2)c2cc(C(NC3CC3)c3cncn3Cc3ccccc3)ccc21 (stereo not drawn) [Compound 9]
	> 100		43	COC(c1ccc2c(c1)c(-c1cccc(Cl)c1)cc(=O)n2C)c1cncn1Cc1ccccc1 (stereo not drawn) [Compound 10]
	> 100		49	Cn1c(=O)cc(-c2cccc(Cl)c2)c2cc(C(N)c3cncn3Cc3ccccc3)ccc21 (stereo not drawn) [Compound 11]
102	> 100		47	Cn1c(=O)cc(-c2cccc(Cl)c2)c2cc(C(c3cncn3Cc3ccccc3)n3ccnc3)ccc21 (stereo not drawn) [Compound 12]
210	< 100		65	CC(=O)NC(c1ccc2c(c1)c(-c1cccc(Cl)c1)cc(=O)n2C)c1cncn1Cc1ccccc1 (stereo not drawn) [Compound 13]
